Among the data in publication PMC7827406, “Structure–Activity Relationship (SAR) Study of Spautin-1 to Entail the Discovery of Novel NEK4 Inhibitors” (International Journal of Molecular Sciences, 2021) are remaining activity values, retold here.

Read-outs that look alike come from different tables or passages of the source.

What all share (test): biochemical
Set-up in all cases: Eurofins KinaseProfiler full panel at Km ATP, residual kinase activity (%) relative to DMSO

One experiment concerns the target CDK2/cyclinE(h) (Homo sapiens, UniProt P24941). The essentials: (§1)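 Two 10 µM single-concentration screens were run: a competition-binding screen, in which DNA-tagged kinase bound to immobilized ligands was quantified by qPCR, and a radiometric activity panel at Km ATP. Each is expressed as residual kinase activity (%).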
The target in another experiment is T1, HRI(h) (Homo sapiens, UniProt Q9BQI3).
T1 construct: gene EIF2AK1
T1 sequence (Q9BQI3 whole entry): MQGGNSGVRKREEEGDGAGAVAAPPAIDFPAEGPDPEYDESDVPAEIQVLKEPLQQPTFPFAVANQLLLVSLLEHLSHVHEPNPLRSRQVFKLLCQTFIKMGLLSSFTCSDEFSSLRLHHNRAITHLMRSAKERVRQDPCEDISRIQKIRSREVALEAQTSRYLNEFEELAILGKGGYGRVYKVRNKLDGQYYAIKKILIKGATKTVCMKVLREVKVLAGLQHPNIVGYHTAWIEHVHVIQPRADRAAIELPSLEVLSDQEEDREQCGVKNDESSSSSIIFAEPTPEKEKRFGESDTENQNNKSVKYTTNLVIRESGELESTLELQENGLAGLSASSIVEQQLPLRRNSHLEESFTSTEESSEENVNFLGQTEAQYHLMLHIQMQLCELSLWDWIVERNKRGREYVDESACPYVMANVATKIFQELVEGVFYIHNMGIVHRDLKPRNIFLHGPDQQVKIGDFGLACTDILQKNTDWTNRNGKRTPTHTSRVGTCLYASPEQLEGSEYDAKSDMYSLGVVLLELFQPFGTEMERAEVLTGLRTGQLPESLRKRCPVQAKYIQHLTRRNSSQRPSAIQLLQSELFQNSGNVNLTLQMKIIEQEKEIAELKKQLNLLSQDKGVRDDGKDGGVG
The essentials:
as §1

A further experiment addresses JAK2(h) (Homo sapiens, UniProt O60674). The essentials: as §1
For the next experiment, the target named is MARK3(h) (Homo sapiens, UniProt P27448). The essentials:
as §1

A further experiment has as its target T2, PKD2(h) (Homo sapiens, UniProt Q9BZL6).
T2 construct: gene PRKD2
T2 sequence (Q9BZL6 1-878): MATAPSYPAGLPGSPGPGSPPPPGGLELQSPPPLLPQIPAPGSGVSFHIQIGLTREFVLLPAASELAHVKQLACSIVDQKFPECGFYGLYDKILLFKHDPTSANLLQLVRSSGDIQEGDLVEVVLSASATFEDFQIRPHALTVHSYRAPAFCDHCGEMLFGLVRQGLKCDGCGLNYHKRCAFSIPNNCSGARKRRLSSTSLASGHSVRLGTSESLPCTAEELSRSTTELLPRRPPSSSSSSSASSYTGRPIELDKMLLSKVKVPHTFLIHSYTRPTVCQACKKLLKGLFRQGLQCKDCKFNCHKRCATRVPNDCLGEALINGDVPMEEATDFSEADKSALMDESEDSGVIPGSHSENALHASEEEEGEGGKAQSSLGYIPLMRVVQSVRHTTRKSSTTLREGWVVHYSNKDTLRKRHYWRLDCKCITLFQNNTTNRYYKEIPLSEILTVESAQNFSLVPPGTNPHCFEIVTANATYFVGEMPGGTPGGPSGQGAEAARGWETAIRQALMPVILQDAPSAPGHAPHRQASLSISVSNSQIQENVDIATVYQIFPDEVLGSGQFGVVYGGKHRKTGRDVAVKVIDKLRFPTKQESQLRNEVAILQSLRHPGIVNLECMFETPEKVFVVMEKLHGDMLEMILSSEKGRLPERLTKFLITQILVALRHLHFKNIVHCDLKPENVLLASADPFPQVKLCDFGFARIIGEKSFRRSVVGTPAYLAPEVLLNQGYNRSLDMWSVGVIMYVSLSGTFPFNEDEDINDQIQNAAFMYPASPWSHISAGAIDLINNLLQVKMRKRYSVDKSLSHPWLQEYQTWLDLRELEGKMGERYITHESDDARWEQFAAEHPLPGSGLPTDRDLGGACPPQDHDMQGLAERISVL
The essentials: as §1

A further experiment deals with T3, ROCK-I(h) (Homo sapiens, UniProt Q13464).
T3 construct: gene ROCK1
T3 sequence (Q13464 whole entry): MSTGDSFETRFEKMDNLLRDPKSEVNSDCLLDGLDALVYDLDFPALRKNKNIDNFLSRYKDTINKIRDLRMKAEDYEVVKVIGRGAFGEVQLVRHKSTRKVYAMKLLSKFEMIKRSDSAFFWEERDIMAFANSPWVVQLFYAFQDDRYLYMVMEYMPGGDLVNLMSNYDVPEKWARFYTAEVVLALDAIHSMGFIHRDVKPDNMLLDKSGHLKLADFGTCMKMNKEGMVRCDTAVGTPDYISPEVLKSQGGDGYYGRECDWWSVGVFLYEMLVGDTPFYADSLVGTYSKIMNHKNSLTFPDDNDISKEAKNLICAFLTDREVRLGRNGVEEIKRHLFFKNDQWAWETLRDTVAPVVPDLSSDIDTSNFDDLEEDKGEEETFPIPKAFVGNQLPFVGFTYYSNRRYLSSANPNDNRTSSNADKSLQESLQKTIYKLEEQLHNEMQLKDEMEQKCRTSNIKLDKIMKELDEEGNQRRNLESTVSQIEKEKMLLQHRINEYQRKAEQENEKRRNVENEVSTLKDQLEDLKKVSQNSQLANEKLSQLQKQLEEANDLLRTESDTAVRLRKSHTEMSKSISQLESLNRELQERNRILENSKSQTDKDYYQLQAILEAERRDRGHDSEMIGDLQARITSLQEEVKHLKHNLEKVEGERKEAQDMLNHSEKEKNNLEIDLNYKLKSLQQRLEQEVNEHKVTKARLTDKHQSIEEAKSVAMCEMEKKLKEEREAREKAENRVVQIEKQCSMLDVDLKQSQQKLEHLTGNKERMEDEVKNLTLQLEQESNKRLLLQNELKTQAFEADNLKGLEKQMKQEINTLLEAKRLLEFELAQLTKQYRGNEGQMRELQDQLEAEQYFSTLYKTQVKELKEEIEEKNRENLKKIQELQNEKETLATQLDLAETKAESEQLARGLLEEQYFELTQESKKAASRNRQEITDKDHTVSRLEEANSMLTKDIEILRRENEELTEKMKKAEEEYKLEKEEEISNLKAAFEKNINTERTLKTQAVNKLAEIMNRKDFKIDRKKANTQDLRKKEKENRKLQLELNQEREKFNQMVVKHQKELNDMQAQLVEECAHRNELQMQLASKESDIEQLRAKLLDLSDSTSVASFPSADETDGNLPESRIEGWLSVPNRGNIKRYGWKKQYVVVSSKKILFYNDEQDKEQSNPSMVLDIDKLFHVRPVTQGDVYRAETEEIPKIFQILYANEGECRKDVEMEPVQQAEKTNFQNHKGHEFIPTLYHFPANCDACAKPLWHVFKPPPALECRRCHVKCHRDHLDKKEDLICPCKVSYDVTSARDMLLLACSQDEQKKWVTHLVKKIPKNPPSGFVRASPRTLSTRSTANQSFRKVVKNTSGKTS
The essentials: as §1

In another experiment the target is T4, ULK1(h) (Homo sapiens, UniProt O75385).
T4 sequence (O75385 1-1050): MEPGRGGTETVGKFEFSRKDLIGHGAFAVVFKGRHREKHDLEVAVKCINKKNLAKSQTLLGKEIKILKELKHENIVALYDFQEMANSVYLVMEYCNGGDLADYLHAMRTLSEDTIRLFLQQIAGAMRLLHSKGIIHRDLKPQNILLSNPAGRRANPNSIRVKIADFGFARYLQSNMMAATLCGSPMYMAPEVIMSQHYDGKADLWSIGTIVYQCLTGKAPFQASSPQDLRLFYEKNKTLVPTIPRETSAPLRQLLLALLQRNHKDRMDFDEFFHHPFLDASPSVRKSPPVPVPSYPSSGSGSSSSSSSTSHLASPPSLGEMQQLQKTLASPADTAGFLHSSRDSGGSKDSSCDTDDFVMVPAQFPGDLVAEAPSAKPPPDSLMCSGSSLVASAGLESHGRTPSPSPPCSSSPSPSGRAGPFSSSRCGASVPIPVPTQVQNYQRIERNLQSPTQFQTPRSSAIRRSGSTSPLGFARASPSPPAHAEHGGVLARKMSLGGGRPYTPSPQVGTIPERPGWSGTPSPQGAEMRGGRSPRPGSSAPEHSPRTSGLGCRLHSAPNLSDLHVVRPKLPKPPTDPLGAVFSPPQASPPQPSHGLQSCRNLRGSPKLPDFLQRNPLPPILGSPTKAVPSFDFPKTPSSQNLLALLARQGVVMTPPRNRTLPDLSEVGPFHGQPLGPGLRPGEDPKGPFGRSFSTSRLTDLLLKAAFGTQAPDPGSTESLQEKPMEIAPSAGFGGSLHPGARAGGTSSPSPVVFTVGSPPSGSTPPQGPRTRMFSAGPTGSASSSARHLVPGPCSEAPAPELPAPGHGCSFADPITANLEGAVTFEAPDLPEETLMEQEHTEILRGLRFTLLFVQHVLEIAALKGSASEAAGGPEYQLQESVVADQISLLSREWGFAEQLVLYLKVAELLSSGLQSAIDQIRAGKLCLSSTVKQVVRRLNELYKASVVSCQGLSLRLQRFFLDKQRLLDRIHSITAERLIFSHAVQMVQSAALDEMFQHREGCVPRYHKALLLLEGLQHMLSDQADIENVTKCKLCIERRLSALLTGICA
The essentials: as §1

Where [1] appears, read: read-out: Residual activity (%) 5at.
The mark [2] stands for this setting: read-out: Residual activity (%) 5ay.
The mark [3] stands for this setting: read-out: Residual activity (%) 5as.
Setting [4] is: read-out: Residual activity (%) Spautin-1 5aa.

MARK3(h), sequence (P27448 whole entry): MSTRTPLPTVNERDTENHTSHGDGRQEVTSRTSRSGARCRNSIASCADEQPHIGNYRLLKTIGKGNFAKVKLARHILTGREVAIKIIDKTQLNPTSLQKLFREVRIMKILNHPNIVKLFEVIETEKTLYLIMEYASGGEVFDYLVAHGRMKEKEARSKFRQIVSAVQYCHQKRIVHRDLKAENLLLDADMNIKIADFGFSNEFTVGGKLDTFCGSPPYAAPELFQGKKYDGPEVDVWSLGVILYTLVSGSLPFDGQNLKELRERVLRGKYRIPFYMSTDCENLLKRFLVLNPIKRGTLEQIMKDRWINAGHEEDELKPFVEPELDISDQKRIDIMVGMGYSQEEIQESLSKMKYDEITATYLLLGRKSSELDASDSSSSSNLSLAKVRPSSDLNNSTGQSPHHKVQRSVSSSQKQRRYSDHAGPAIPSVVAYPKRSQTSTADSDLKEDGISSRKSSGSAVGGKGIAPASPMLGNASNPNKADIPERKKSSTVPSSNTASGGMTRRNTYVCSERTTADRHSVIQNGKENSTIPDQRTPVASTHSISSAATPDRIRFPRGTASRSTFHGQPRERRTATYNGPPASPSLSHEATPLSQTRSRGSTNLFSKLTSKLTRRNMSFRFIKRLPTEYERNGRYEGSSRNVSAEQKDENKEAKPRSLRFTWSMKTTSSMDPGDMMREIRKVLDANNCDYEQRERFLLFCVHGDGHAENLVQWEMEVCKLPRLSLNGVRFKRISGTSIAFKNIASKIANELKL
JAK2(h), sequence (O60674 whole entry): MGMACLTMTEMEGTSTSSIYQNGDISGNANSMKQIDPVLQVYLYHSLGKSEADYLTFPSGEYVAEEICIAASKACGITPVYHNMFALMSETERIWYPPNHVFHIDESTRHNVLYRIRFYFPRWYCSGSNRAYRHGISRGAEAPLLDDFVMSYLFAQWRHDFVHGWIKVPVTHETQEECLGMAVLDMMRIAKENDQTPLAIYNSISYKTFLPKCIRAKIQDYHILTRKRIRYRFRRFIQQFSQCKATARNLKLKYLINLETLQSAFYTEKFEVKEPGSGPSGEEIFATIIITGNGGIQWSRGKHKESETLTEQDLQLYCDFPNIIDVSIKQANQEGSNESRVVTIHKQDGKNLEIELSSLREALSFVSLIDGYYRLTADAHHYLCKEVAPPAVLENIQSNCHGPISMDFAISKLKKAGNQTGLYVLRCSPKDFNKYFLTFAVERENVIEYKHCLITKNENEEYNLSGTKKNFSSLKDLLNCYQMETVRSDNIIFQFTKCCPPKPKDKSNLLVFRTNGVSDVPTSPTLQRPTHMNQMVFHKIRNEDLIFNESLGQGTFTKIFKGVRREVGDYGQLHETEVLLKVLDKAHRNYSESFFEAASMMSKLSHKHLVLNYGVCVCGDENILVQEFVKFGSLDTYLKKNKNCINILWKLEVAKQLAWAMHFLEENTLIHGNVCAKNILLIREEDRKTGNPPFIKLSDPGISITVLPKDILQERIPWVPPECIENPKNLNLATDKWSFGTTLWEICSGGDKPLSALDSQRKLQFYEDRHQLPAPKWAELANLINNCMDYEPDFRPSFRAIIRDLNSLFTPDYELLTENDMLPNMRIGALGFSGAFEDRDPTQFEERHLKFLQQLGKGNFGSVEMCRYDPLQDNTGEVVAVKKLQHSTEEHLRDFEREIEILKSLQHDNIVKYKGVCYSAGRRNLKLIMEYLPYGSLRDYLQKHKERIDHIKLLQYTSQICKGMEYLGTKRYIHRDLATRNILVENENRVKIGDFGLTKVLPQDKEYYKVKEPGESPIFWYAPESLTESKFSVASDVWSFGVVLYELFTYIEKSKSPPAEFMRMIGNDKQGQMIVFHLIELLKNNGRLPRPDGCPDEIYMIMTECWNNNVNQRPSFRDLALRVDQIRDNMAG

In the case of `Fc1ccc2ncnc(NCCc3ccc(Cl)cc3)c2c1` [5at, N-[2-(4-Chlorophenyl)Ethyl]-6-Fluoro-4-Quinazolinamine], the remaining activity at 10 µM at CDK2/cyclinE(h) (setting [1]) was found to be 54%; at HRI(h) (setting [1]) it was 101%; on JAK2(h) (setting [1]) it was 86%; at MARK3(h) (setting [1]) it was 85%; at PKD2(h) (setting [1]) it was 76%; at ROCK-I(h) (setting [1]), 93%. In addition, the remaining activity at 10 µM at ULK1(h) (setting [1]) came out at 84%.
For `COc1ccc2ncnc(Nc3cccc(F)c3)c2c1` [5ay, N-(3-Fluorophenyl)-6-Methoxy-4-Quinazolinamine], the remaining activity at 10 µM on CDK2/cyclinE(h) (setting [2]) turned out to be 89%; on HRI(h) (setting [2]) it was 99%; on JAK2(h) (setting [2]) it was 108%; at MARK3(h) (setting [2]) it was 89%; at PKD2(h) (setting [2]) it was 77%; on ROCK-I(h) (setting [2]), 96%. Also, the remaining activity at 10 µM at ULK1(h) (setting [2]) came out at 93%.
With `Fc1ccc(CCNc2ncnc3ccc(F)cc23)cc1` [5as, 6-Fluoro-N-[2-(4-Fluorophenyl)Ethyl]-4-Quinazolinamine], the remaining activity at 10 µM came to 103% at CDK2/cyclinE(h) (setting [3]); 99% on HRI(h) (setting [3]); 93% at JAK2(h) (setting [3]); 87% on MARK3(h) (setting [3]); 74% at PKD2(h) (setting [3]); 98% on ROCK-I(h) (setting [3]). The remaining activity at 10 µM on ULK1(h) (setting [3]) was 91%.
For `Fc1ccc(CNc2ncnc3ccc(F)cc23)cc1` [5aa, 6-Fluoro-N-(4-fluorobenzyl)-4-Quinazolinamine], the remaining activity at 10 µM at CDK2/cyclinE(h) (setting [4]) was 69%; at HRI(h) (setting [4]) it was 96%; on JAK2(h) (setting [4]), 91%; on MARK3(h) (setting [4]) it was 95%; at PKD2(h) (setting [4]), 106%; on ROCK-I(h) (setting [4]), 91%. Besides, the remaining activity at 10 µM on ULK1(h) (setting [4]) is 99%.
